Measured values taken from PubChem BioAssay (NCI).
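Where inhibition never reached the appropriate level, the endpoint shown equals the highest concentration tested. Otherwise, values were interpolated linearly from a five-concentration, 48-hour dose response in 96-well plates. Definition used: TGI = concentration required for complete inhibition of growth.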

Experiments:
Assay in all cases: NCI-60 cell line screen, 48 h
[1] = system: HCT-15 colon
[2] = system: OVCAR-5 ovarian
[3] = system: UO-31 renal
[4] = system: UACC-257 melanoma
[5] = system: HS 578T breast
[6] = system: MDA-N
[7] = system: KM12 colon
[8] = system: SK-MEL-2 melanoma
[9] = system: U251 CNS
[10] = system: MDA-MB-435
[11] = system: NCI-H460 lung
[12] = system: M14 melanoma
[13] = system: BT-549 breast
[14] = system: MALME-3M melanoma
[15] = system: LOX IMVI melanoma
[16] = system: K-562 leukemia
[17] = system: SF-268 CNS
[18] = system: COLO 205 colon
[19] = system: SNB-75 CNS
[20] = system: CAKI-1 renal
[21] = system: SW-620 colon
[22] = system: NCI/ADR-RES ovarian
[23] = system: MOLT-4 leukemia
[24] = system: TK-10 renal
[25] = system: RXF 393 renal
[26] = system: HCC-2998 colon
[27] = system: OVCAR-4 ovarian
[28] = system: ACHN renal
[29] = system: SK-MEL-28 melanoma
[30] = system: SF-295 CNS
[31] = system: HT29 colon
[32] = system: NCI-H522 lung
[33] = system: SN12C renal
[34] = system: A498 renal
[35] = system: SNB-19 CNS
[36] = system: A549 NSCLC
[37] = system: SK-MEL-5 melanoma
[38] = system: T-47D breast
[39] = system: OVCAR-8 ovarian
[40] = system: HCT-116 colon
[41] = system: CCRF-CEM leukemia
[42] = system: SF-539 CNS
[43] = system: HL-60(TB) leukemia
[44] = system: IGROV1 ovarian
[45] = system: UACC-62 melanoma
[46] = system: NCI-H226 lung
[47] = system: NCI-H23 lung
[48] = system: 786-0 renal
[49] = system: EKVX NSCLC
[50] = system: OVCAR-3 ovarian
[51] = system: SR leukemia
[52] = system: HOP-62 NSCLC
[53] = system: SK-OV-3 ovarian

CN(C)c1ccc(C(=O)NCCCCCCC(=O)NO)cc1
TGI [1]: > 38.3 µM
TGI [2]: 1.49 µM
TGI [3]: 5.2 µM
TGI [4]: 2.13 µM
TGI [5]: > 23.8 µM
TGI [6]: 0.908 µM
TGI [7]: 35.4 µM
TGI [8]: 0.932 µM
TGI [9]: 3.64 µM
TGI [10]: 3.62 µM
TGI [11]: 5.21 µM
TGI [12]: > 38 µM
TGI [13]: > 28.3 µM
TGI [14]: > 100 µM
TGI [15]: 1.51 µM
TGI [16]: > 100 µM
TGI [17]: 6.26 µM
TGI [18]: 0.832 µM
TGI [19]: 2.2 µM
TGI [20]: 2.81 µM
TGI [21]: > 21.5 µM
TGI [22]: 0.728 µM
TGI [23]: > 100 µM
TGI [24]: 2.7 µM
TGI [25]: 1.73 µM
TGI [26]: 1.48 µM
TGI [27]: > 25.3 µM
TGI [28]: 5.45 µM
TGI [29]: 13.9 µM
TGI [30]: 1.82 µM
TGI [31]: > 32.5 µM
TGI [32]: 0.739 µM
TGI [33]: 2.03 µM
TGI [34]: 3.07 µM
TGI [35]: > 100 µM
TGI [36]: 10.9 µM
TGI [37]: 1.39 µM
TGI [38]: 1.04 µM
TGI [39]: 2.46 µM
TGI [40]: 0.972 µM
TGI [41]: > 100 µM
TGI [42]: > 53 µM
TGI [43]: > 63.8 µM
TGI [44]: 2.69 µM
TGI [45]: 1.37 µM
TGI [46]: 17.8 µM
TGI [47]: 3.66 µM
TGI [48]: > 30.4 µM
TGI [49]: > 100 µM
TGI [50]: 4.38 µM
TGI [51]: > 76 µM
TGI [52]: 98.8 µM
TGI [53]: 1.54 µM
